Measurements published in patent US11337935B2, “Identification of stabilizers of multimeric proteins” (The Board of Trustees of the Leland Stanford Junior …, priority 2010, dated 2022).

Legend:
[1] = test system: V122I TTR cytotoxicity in human AC16 cardiac cells; test: Inhibition of V122I TTR cytotoxicity; details: V122I TTR and ligand 8 μM each, AC16, 24 h
Method: (§1) The human cardiac cell line AC16 was maintained in DMEM:F12 (1:1) supplemented with 10% FBS, 1 mM Hepes buffer, 2 mM L-glutamine, 100 units/mL penicillin and 100 μg/mL streptomycin. Two to 4-day-old cultures (˜70% confluent) were used for the experiments.
(§2) Recombinant WT TTR purified in the cold in HBSS (Mediatech, Manassas, Va.) was used as a cytotoxic insult to IMR-32 cells and the amyloidogenic V122I TTR was used as cytotoxic insult to cardiac AC16 cells. Candidate compounds (16 mM in DMSO) were diluted 1:1000 with WT TTR or V122I TTR (16 mM in HBSS, filter sterilized) or with HBSS only. The mixtures were vortexed and incubated for 24 h at 4° C. WT TTR or V122I TTR (16 mM in HBSS) containing the same amount of DMSO than TTR/candidate compound mixtures was prepared in parallel and incubated under the same conditions.
(§3) The neuroblastoma IMR-32 and the cardiac AC16 cells were seeded in black wall, clear bottom, tissue culture treated 96-well plates (Costar) at a density of 6,000 cells/well and 250 cells/well, respectively in Opti-mem supplemented with 5% FBS, 1 mM Hepes buffer, 2 mM L-glutamine, 100 units/mL penicillin and 100 μg/mL streptomycin, 0.05 mg/mL CaCl2 and incubated overnight at 37° C. The medium was then removed and replaced immediately by the TTR/compound or HBSS previously diluted 1:1 in Opti-mem supplemented with 0.8 mg/mL BSA, 2 mM Hepes buffer, 4 mM L-glutamine, 200 units/mL penicillin, 200 μg/mL streptomycin and 0.1 mg/mL CaCl2. The cells were incubated 24 h at 37° C. after which cell viability was measured.
(§4) Cell viability of the cells treated with TTR or TTR/candidate compound was evaluated by a resazurin reduction assay. Briefly, 10 μL/well of resazurin (500 mM, PBS) was added to each well and incubated for 2-3 h at 37° C. Viable cells reduce resazurin to the highly fluorescent resorufin dye, which is quantitated in a multiwell plate reader (Ex/Em 530/590 nm, Tecan Safire2, Austria). Cell viability was calculated as percentage of fluorescence relative to cells treated with vehicle only (100% viability) after subtraction of blank fluorescence (wells without cells). All experimental conditions were performed at least in six replicates. Averages and SEM corresponding to 2 independently performed experiments were calculated.
(§5) The compounds under study were pre-incubated with WT TTR or V122I TTR for 24 h at 4° C. at equimolar concentrations (8 μM) and added to IMR-32 cells or AC16 cells, respectively. Cell viability was measured after 24 h by a resazurin reduction assay. […] The percentage of viable cells was calculated relative to cells treated with vehicle only (cell culture media and DMSO)—which were assigned to be 100% viable.

TTR [2] = biological target: T1, TTR (Homo sapiens (Human), UniProt P02766); test: Determination of IC50 using the FP assay (HTS format); type: binding; details: read-out: IC50 (50% decrease in the FP signal); repurchased top 33 hits, 10-point duplicate dose-response
WT TTR = WT TTR (Homo sapiens (Human), UniProt P02766); test: Acid-mediated fibril formation assay for TTR amyloidogenesis (turbidity); details: ligand 7.2 μM, TTR 3.6 μM, pH 4.4, 37° C., 72 h; no inhibitor = 100%
Method: The efficacy of each compound to inhibit TTR amyloidogenesis was determined by monitoring the turbidity of TTR aggregation at acidic pH, as described previously. […] The final 1 ml sample mixture was vortexed, then incubated at 37° C. for 72 hours, after which the sample was vortexed and the optical density was measured at 400 nm on a Beckman DU® 640 spectrophotometer. […] The optical density was also corrected for the absorption of all test compounds in the absence of TTR. […] The optical density (400 nm) was measured as described above at 0, 24, 48, 72, 96, and 120 hours. All assays were performed in triplicate and the average values obtained are presented.
TTR was preincubated with small molecules for 30 min at room temperature before amyloidosis was initiated (lowering pH to 4.4, incubation at 37° C.). […] The amyloidogenesis inhibition efficacy of each compound was determined by monitoring the turbidity of TTR (400 nm). The extent of TTR amyloidogenesis was quantitated at a fixed time point (72 h). All amyloid fibril formation data was normalized to TTR amyloidogenesis in the absence of inhibitor, assigned to be 100% fibril formation. […] The aggregation inhibition was monitored over 5 days using the acid-mediated fibril formation assay (compared to 3 days for the fixed time point described above) (FIG. 5B).

[3] = test system: WT TTR cytotoxicity in human IMR-32 neuroblastoma cells; test: Inhibition of WT TTR cytotoxicity; details: WT TTR and ligand 8 μM each, IMR-32, 24 h
Method: as §1, §2, §3, §4, §5

human wild type TTR = human wild type TTR (Homo sapiens (Human), UniProt P02766); test: Isothermal titration calorimetry (ITC) of ligands against TTR; type: binding
Method: Calorimetric titrations were carried out on a VP-ITC calorimeter (MicroCal, Northhampton, Mass.). […] Prior to each titration, all samples were degassed for 10 minutes. The initial injection of 3.0 μL was followed by 30 injections of 8.0 μL each (25° C.) to the point that TTR was fully saturated with ligand. Integration of the thermogram after subtraction of blanks yielded a binding isotherm that was analyzed with MicroCal Origin 5.0 software.

TTR [4] = biological target: T1, TTR; test: FP saturation binding experiment; details: FITC alone
Method: The binding of probe 5 for TTR was evaluated as follows. […] The samples were allowed to equilibrate by agitation for 20 min at room temperature. Fluorescence polarization (excitation λ 485 nm, emission λ 525 nm, Cutoff λ 515 nm) measurements were taken using SpectraMax M5 Microplate Reader (Molecular Devices). […] Nonspecific FP, produced by the free fluorescent probe 5 as well as by binding of 5 to the plate, was equal to 70±10 mP.

[5] = biological target: wild type biotinylated TTR (Homo sapiens (Human), UniProt P02766); test: Surface plasmon resonance (SPR) assay on immobilized biotinylated TTR; type: binding
Method: To an ice-cold solution of TTR (20 μM) in PBS was added EZ-Link Sulfo-NHS-LC-Biotin at a ratio of ˜2:1 (biotin:TTR) (minimal biotinylation) and the solution was incubated at room temperature. After 1 hour, un-reacted biotin was removed by passing the sample over a fast (FPLC) desalting column (Superdex™ 75) equilibrated with PBS.
SPR measurements were performed at 25° C. using a Biacore T100 (GE Healthcare) instrument equilibrated in 1% DMSO in PBS as a running buffer. After pretreatment of the streptavidin-coated chip (Sensor Chop SA, Biacore), ˜4000 RU biotinylated TTR was immobilized on one channel leaving the second flow channel as a blank (streptavidin alone) control. For binding measurements, HTS hits were diluted in running buffer (1% DMSO/PBS) and different dilution series were flowed over the chip at 50 μL/min ([…], 600 s wash). A zero concentration sample was used as a negative control. The kinetic data was fitted to a one-to-one binding model using Biacore T100 evaluation software.

O=C(O)c1cccnc1Nc1cccc(C(F)(F)F)c1 [Niflumic acid, niflumic acid, reference compound]
Prevention of TTR-induced cytotoxicity [1]: relatively poor inhibitor

Cc1ccc(Cl)c(Nc2ccccc2C(=O)O)c1Cl
IC50 (TTR [2]): 0.504 µM
% fibril formation (WT TTR): 3.87 ± 0.93%

Cc1n[nH]c(C)c1CCc1nc2c3ccccc3[nH]c(=S)n2n1 [Compound 15]
Prevention of TTR-induced cytotoxicity [3]: completely prevented
Prevention of TTR-induced cytotoxicity [1]: completely prevented

O=[N+]([O-])c1cc(O)c(O)c([N+](=O)[O-])c1 [3,5-dinitrocatechol, 3,5-dinitrocatechol, reference compound]
Prevention of TTR-induced cytotoxicity [3]: poor inhibitor
Prevention of TTR-induced cytotoxicity [1]: poor inhibitor

O=C(O)Cc1ccccc1Nc1c(Cl)cccc1Cl [drawing 78]
IC50 (TTR [2]): 3.74 µM
% fibril formation (WT TTR): 11.56 ± 0.72%

O=C(O)c1ccccc1Nc1cc(Cl)c(OCCOCCOCCNC(=S)Nc2ccc3c(c2)C(=O)OC32c3ccc(O)cc3Oc3cc(O)ccc32)c(Cl)c1 [Compound 5, 2-(3,5-dichloro-4-(2-(2-(2-(3-(3′,6′-dihydroxy-3-oxo-3H-spiro[isobenzofuran-1,9′-xanthene]-5-yl)thioureido)ethoxy)ethoxy)ethoxy)phenylamino)benzoic acid]
Decrease in binding affinity to TTR relative to 4 (fold) (human wild type TTR): ~3 fold

O=C(c1cc(O)c(O)c([N+](=O)[O-])c1)c1ccccc1F [Ro 41-0960, reference compound]
Prevention of TTR-induced cytotoxicity [3]: completely prevented
Prevention of TTR-induced cytotoxicity [1]: completely prevented

CN1C(=N)NC(=O)/C1=C/c1cc(Br)c(O)c(Br)c1 [Compound 14]
Prevention of TTR-induced cytotoxicity [3]: completely prevented
Prevention of TTR-induced cytotoxicity [1]: completely prevented

Cc1n[nH]c(C)c1CCCOc1ccccc1F [Compound 7]
Prevention of TTR-induced cytotoxicity [3]: completely prevented
Prevention of TTR-induced cytotoxicity [1]: completely prevented

Fluorescein isothiocyanate [FITC]
Interaction with TTR (change in FP signal upon addition of TTR) (TTR [4]): no interaction with TTR

O=C(O)Cc1ccccc1Nc1c(Cl)cccc1Cl [Diclofenac]
lower target residence time than 7 (fold) [5]: ~40 ×
